From patent US11413266B2, “Use of cannabinoids in the treatment of inflammatory skin diseases” (GW Pharma Limited, priority 2015, dated 2022)

Assays:
[1] = tested on: MCP-2; assay: MCP-2 ELISA in supernatants of poly-(I:C)-stimulated HaCaT cells; format: cell-based, human; details: poly-(I:C)-stimulated HaCaT; for MCP-2 production: 6 h; for MCP-2 protein levels: all tested at 5, 10 and 20 μM, data not shown
[2] = tested on: human epidermal keratinocytes; assay: Summary score, TLR3-induced inflammation model (microbial infection-induced dermatitis); format: cell-based
[3] = tested on: IL8; assay: PolyIC-induced IL8 release in NHEK keratinocytes, ELISA; format: cell-based, human; details: NHEKs; for TLR3-activation induced augmented release of IL8: higher concentration
[4] = tested on: human epidermal keratinocytes; assay: Summary score, UVB-induced inflammation model (solar dermatitis); format: cell-based
[5] = tested on: IL8; assay: UVB-induced IL8 mRNA expression in HaCaT keratinocytes, RT-qPCR; format: cell-based, human
[6] = tested on: IL6; assay: PolyIC-induced IL6 release in NHEK keratinocytes, ELISA; format: cell-based, human; details: NHEKs; for PolyIC-induced elevated release of IL6: concentration not singled out (0.3 and 3 μM tested); for TLR3-activation induced augmented release of IL6: higher concentration
[7] = tested on: IL6; assay: UVB-induced IL6 mRNA expression in HaCaT keratinocytes, RT-qPCR; format: cell-based, human
[8] = tested on: IL6; assay: UVB-induced IL6 release in HaCaT keratinocytes, ELISA; format: cell-based, human
[9] = tested on: IL8; assay: UVB-induced IL8 release in NHEK keratinocytes, ELISA; format: cell-based, human; details: NHEKs; only at given (mostly lower) concentrations
[10] = tested on: IL8; assay: UVB-induced IL8 release in HaCaT keratinocytes, ELISA; format: cell-based, human
[11] = tested on: HPV-Ker keratinocytes; assay: Summary score, SEB/TSLP-induced inflammation model (atopic dermatitis); format: cell-based, human; details: for SCORE: sum of +1 anti-inflammatory, 0 no effect, −1 pro-inflammatory, Table 3; for Overall action in the SEB/TSLP-induced inflammation model: conclusion on Table 3
[12] = tested on: IL8; assay: SEB/TSLP-induced IL8 release in HPV-Ker keratinocytes, ELISA; format: cell-based, human; details: lower concentrations
[13] = tested on: IL6; assay: UVB-induced IL6 release in NHEK keratinocytes, ELISA; format: cell-based, human; details: NHEKs; for UVB-upregulated expression of IL6: only at given (mostly lower) concentrations; for UVB-upregulated IL6: higher concentrations
[14] = tested on: IL6; assay: PolyIC-induced IL6 release in HPV-Ker keratinocytes, ELISA; format: cell-based, human; details: HPV-KER cells
[15] = tested on: ACD in 2,4-dinitrofluorobenzene (DNFB)-treated wild-type mice; details: Karsak et al. 2007, cited from earlier work
[16] = 0.3 μM, sum of +1 anti-inflammatory, 0 no effect, −1 pro-inflammatory, Table 1
[17] = 3 μM, sum of +1 anti-inflammatory, 0 no effect, −1 pro-inflammatory, Table 1
[18] = concentration not singled out (0.3 and 3 μM tested)
[19] = 0.3 μM, sum of +1 anti-inflammatory, 0 no effect, −1 pro-inflammatory, Table 2
[20] = 3 μM, sum of +1 anti-inflammatory, 0 no effect, −1 pro-inflammatory, Table 2

Structure (SMILES)	MCP-2 production ([1]; 5 μM)	MCP-2 production ([1]; 10 μM)	MCP-2 production ([1]; 20 μM)	SCORE [2, 16]	SCORE [2, 17]	PolyIC-induced elevated release of IL8 [3, 18]	SCORE [4, 19]	SCORE [4, 20]	MCP-2 protein levels [1]	UVB-upregulated IL8 (RT-qPCR) ([5]; 0.3 μM)	UVB-upregulated IL8 (RT-qPCR) ([5]; 3 μM)	PolyIC-induced elevated release of IL6 [6]	UVB-upregulated IL6 (RT-qPCR) ([7]; 0.3 μM)	UVB-upregulated IL6 (ELISA) ([8]; 0.3 μM)	UVB-upregulated IL8 (ELISA) ([10]; 0.3 μM)	UVB-upregulated IL8 (ELISA) ([10]; 3 μM)	SCORE ([11]; 0.3 μM)	SCORE ([11]; 3 μM)	UVB-upregulated IL6 (RT-qPCR) ([7]; 3 μM)	UVB-upregulated IL6 (ELISA) ([8]; 3 μM)	other results
CCCCCc1cc(O)c2c(c1)OC(C)(CCC=C(C)C)C=C2 (stereo not drawn) [CBC, cannabichromene]	no effect	no effect	able to reduce	–	–	–	–	–	–	–	–	–	–	–	–	–	–	–	–	–	–
C=C(C)[C@@H]1CCC(C)=C[C@H]1c1c(O)cc(CCCCC)c(C(=O)O)c1O [CBDA, Cannabidiolic acid]	–	–	–	7	10	dose-dependent suppression	1	−1	No effect	pro-inflammatory effects	pro-inflammatory effects	dose-dependent suppression	pro-inflammatory effects	pro-inflammatory effects	pro-inflammatory effects	pro-inflammatory effects	0	1	–	–	UVB-upregulated expression of IL8 [9]: significantly suppress; Overall action in the SEB/TSLP-induced inflammation model [11]: most effective; SEB/TSLP-induced up-regulation of IL8 release [12]: did not induce any significant effect
C=C(C)[C@@H]1CCC(C)=C[C@H]1c1c(O)cc(CCC)cc1O [CBDV, Cannabidivarin]	–	–	–	–	–	–	–	–	–	–	anti-inflammatory effects	did not affect	anti-inflammatory effects	–	–	anti-inflammatory effects	0	1	anti-inflammatory effects	anti-inflammatory effects	SCORE ([2]; 0.3 µM): 7; SCORE ([2]; 3 µM): 5; UVB-upregulated expression of IL6 [13]: significantly suppress; TLR3-activation induced augmented release of IL8 [3]: significantly further augmented; SCORE ([4]; 0.3 µM): 2; SCORE ([4]; 3 µM): 5; Overall action in the SEB/TSLP-induced inflammation model [11]: most effective; SEB/TSLP-induced up-regulation of IL8 release [12]: did not induce any significant effect
C=C(C)[C@@H]1CCC(C)=C[C@H]1c1c(O)cc(CCC)c(C(=O)O)c1O [CBDVA, cannabidivarinic acid]	–	–	–	–	–	–	–	–	No effect	–	–	–	–	–	–	–	–	–	–	–	–
CCCCCc1cc(O)c(C/C=C(\C)CCC=C(C)C)c(O)c1 [CBG, Cannabigerol]	no effect	no effect	able to reduce	5	9	dose-dependent suppression	2	3	–	–	–	dose-dependent suppression	anti-inflammatory effects	–	–	pro-inflammatory effects	0	1	anti-inflammatory effects	anti-inflammatory effects	UVB-upregulated IL6 [13]: pro-inflammatory effects; UVB-upregulated expression of IL8 [9]: significantly suppress; Overall action in the SEB/TSLP-induced inflammation model [11]: most effective; SEB/TSLP-induced up-regulation of IL8 release [12]: did not induce any significant effect
CCCCCc1cc(O)c(C/C=C(\C)CCC=C(C)C)c(O)c1C(=O)O [CBGA, cannabigerolic acid]	–	–	–	–	–	–	–	–	No effect	–	–	–	–	–	–	–	–	–	–	–	–
CCCc1cc(O)c(C/C=C(\C)CCC=C(C)C)c(O)c1 [CBGV, Cannabigervarin]	–	able to reduce	–	5	5	did not affect	−1	2	–	pro-inflammatory effects	pro-inflammatory effects	–	anti-inflammatory effects	pro-inflammatory effects	pro-inflammatory effects	pro-inflammatory effects	−1	1	anti-inflammatory effects	anti-inflammatory effects	PolyIC-induced IL6 levels ([14]; 0.3 μM): did not affect; TLR3-activation induced augmented release of IL6 ([14]; 3 μM): significantly further augmented; UVB-upregulated expression of IL6 [13]: significantly suppress; TLR3-activation induced augmented release of IL6 [6]: significantly further augmented
CCCCCc1cc(O)c2c(c1)OC(C)(C)[C@@H]1CCC(C)=C[C@@H]21 [THC, tetrahydrocannabinol]	–	–	–	–	–	–	–	–	–	–	–	–	–	–	–	–	–	–	–	–	ACD ([15]; subcutaneous and topical application): attenuated; ear swelling ([15]; vs untreated mice): significantly decreased; recruitment of Gr-1 positive granulocytes ([15]; vs untreated mice): reduced
CCCc1cc(O)c2c(c1)OC(C)(C)[C@@H]1CCC(C)=C[C@@H]21 [THCV, Tetrahydrocannabivarin]	no effect	able to reduce	able to reduce	7	7	–	4	0	–	anti-inflammatory effects	–	–	–	anti-inflammatory effects	anti-inflammatory effects	pro-inflammatory effects	−1	1	anti-inflammatory effects	pro-inflammatory effects	UVB-upregulated IL6 [13]: pro-inflammatory effects; TLR3-activation induced augmented release of IL8 [3]: did not affect; PolyIC-induced elevated release of IL8 ([3]; low concentration): significantly suppressed; TLR3-activation induced augmented release of IL6 [6]: significantly further augmented; PolyIC-induced IL6 level ([6]; low concentration): did not affect
CCCc1cc2c(c(O)c1C(=O)O)[C@@H]1C=C(C)CC[C@H]1C(C)(C)O2 [THCVA, tetrahydrocannabivarinic acid]	–	–	–	–	–	–	–	–	No effect	–	–	–	–	–	–	–	–	–	–	–	–
